Results published in patent USRE48253E1, “Methotrexate adjuvants to reduce toxicity and methods for using the same” (Tosk, Inc., priority 2008, dated 2020).

How the values were obtained:
Drosophila melanogaster = test: Fly Study I: protection from MTX-induced lethality; assay type: in vivo
Description: In this study, Drosophila melanogaster eggs (50 eggs per vial) were treated with either 0.005 mg TK-112690+0.4 mg MTX (Group 1), 0.01 mg TK-112690+0.4 mg MTX (Group 2), 0.04 mg TK-112690+0.4 mg MTX (Group 3), 0.1 mg TK-112690+0.4 mg MTX (Group 4), 0.4 mg MTX alone (Group 5) or saline blank (Group 6). Two vials of eggs for each dose group were evaluated for viability (viable flies plus pupae).
The efficacy of cancer chemotherapy can be improved if agents are available to reduce the adverse events associated with treatment with cytotoxic agents. To this end, Drosophila melanogaster (commonly know as the fruit fly) is an ideal organism to screen chemical compounds for such side-effect-reducing agents. This study is aimed at finding a dose of a 2,2′-anhydropyrimidine test article that protects against MTX-induced lethality in insects.
Increasing amounts of a 2,2′-anhydropyrimidine test article (typically 0.03 to 0.1 mg) are mixed in an aqueous solution with 0.3 (or 0.4) mg MTX. Four milliliters (mL) of a 2,2′-anhydropyrimidine test article+MTX solutions are added to an appropriate amount of instant fly medium. Fruit fly eggs are added to a 2,2′-anhydropyrimidine test article+MTX treated medium and incubated for up to 31 days. After the 31 day incubation, each assay is scored by the number of mature fly and pupae per vial.
The assays are set up in clear sterile polystyrene narrow diameter vials from Applied Scientific (Hampton, N.H.). Vials are stored in trays and incubated in a darkened 25° C. incubator.
Reagents and materials used are: 50 mg/mL MTX in H2O (pH 8), 20 mg/mL of the 2,2′-anhydropyrimidine test article in H2O, water, sterile polystyrene narrow diameter vials from Applied Scientific, Instant Drosophila Food Medium, Oregon-R Drosophila melanogaster, 25° C. incubator, and 15 mL polystyrene conical tubes
Each assay is performed in a separate fly vial. […] Pre-measured amounts of instant drosophila medium are added to each assay to achieve optimal hydration level. […] Assays are scored by the number of dead pupae or adult flies per vial.

C57Bl/6 female mice = test: Mouse Study II: MTX-induced loss of mucosal permeability (plasma iodixanol); assay type: in vivo; conditions: day 7
Description: C57Bl/6 female mice (n=7) were treated intraperitoneal (ip) with 100 mg/kg MTX on days 2, 3 and 4 with and without 60 mg/kg TK-112690 (ip) three hours before, and after, MTX injections. On day 7, mucosal barrier injury was estimated by measuring plasma concentrations of orally administered iodixanol determined by HPLC using UV detection (Boxplots with minimum and maximum values (black lines). Orally administered iodixanol is not absorbed absent an increase in mucosal permeability. Group 1=saline control, Group 2=MTX and Group 3=MTX+TK-112690.
The aim of this study was to evaluate the ability of a representative a 2,2′-anhydropyrimidine test article to mitigate MTX-induced loss of mucosal permeability. C57Bl/6 female mice (n=7) were treated (ip) with 100 mg/kg MTX on days 2, 3 and 4 with and without 60 mg/kg TK-112690 (ip) three hours before, and after, MTX injections. On day 7, mucosal barrier injury was estimated by measuring plasma concentrations of orally administered iodixanol determined by HPLC using UV detection. Orally administered iodixanol is not absorbed absent an increase in mucosal permeability.

CCRF-CEM human tumors = test: Mouse Study IV: xenograft with CCRF-CEM implants; assay type: in vivo, SCID mice
Description: In this study, n=10 SCID mice per dose group were treated with CCRF-CEM human tumors and the tumors allowed to grow to a size of approximately 100 mg. Then the animals were treated by intraperitoneal (ip) injection with either control 20% DMSO/80% PBS (1×/day)×5 days (Group 1), MTX 7.5 mg/kg/injection (1×/day)×5 days (Group 2) or MTX 7.5 mg/kg/inj. (1×/day)×5 days+TK-112690 30 mg/kg/inj.±3 hrs (group 3). The Figure provides tumor sizes in each of the 3 groups on Day 27 of the study.
A xenograft study was performed to analyze the effect of TK-112690. administration on the in vivo efficacy of MTX against a human cancer. Human CCRF-CEM (T-ALL) cells were implanted subcutaneously into SCID mice. Tumor volumes were recorded on a regular basis, and once tumors had become established, treatment was given. […] All treatments were given ip, and TK-112690 was give 3 hours prior to and 3 hours after MTX administration.

Row | SMILES | effect of MTX on lethality in the flies (Drosophila melanogaster; 0.4 mg MTX alone vs saline) | mucosal barrier injury (plasma concentration of orally administered iodixanol) (C57Bl/6 female mice; 100 mg/kg MTX ip on Days 2, 3 and 4) | tumor volume day 27, treatment vs saline (CCRF-CEM human tumors; MTX 7.5 mg/kg/injection ip (1×/day)×5 days) | protection against MTX-induced lethality in the Fly model (Drosophila melanogaster; with MTX 0.4 mg, TK-112690 0.005 to 0.1 mg) | protection from MTX-induced mucosal barrier injury (plasma concentration of orally administered iodixanol) (C57Bl/6 female mice; 60 mg/kg ip three hours before and after MTX 100 mg/kg, days 2, 3, 4) | tumor volume day 27, MTX+TK-112690 vs MTX (CCRF-CEM human tumors; TK-112690 30 mg/kg ip 3 hours prior to and after MTX 7.5 mg/kg)
1 | CN(Cc1cnc2nc(N)nc(N)c2n1)c1ccc(C(=O)N[C@@H](CCC(=O)O)C(=O)O)cc1 [MTX, N-[4-[[(2,4-diamino-6-pteridinyl)methyl]methylamino]benzoyl]-L-glutamic acid, reference compound] | highly significant | experienced mucosal barrier injury | significantly different | – | – | –
2 | Cc1cn2c(nc1=O)O[C@H]1[C@H](O)[C@@H](CO)O[C@H]12 [TK-112690, 2,2′-anhydro-5-methyluridine] | – | – | – | highly significant | protected mice from MTX-induced mucosal barrier injury | not significantly different
